Assay results: patent publication US11993821B2, “Co-crystallized sweeteners” (FIRMENICH SA, priority 2012, dated 2024)

Experiment: Dissolution measurements (Distek 2100B USP 2 dissolution system, UV/Vis probe at 324 nm)
Assay type: physicochemical
Conditions: 1 L deionized water, 200 rpm, amount for 20 ppm Compound I
Protocol: Dissolution Measurements: The performance of the sucrose/Compound I co-crystallized product was compared to that of the Compound I starting material and sucrose/Compound I powder mixtures under standard conditions using a Distek 2100B USP 2 dissolution system. Sufficient amounts of each sample were added in order to create 20 ppm solutions of Compound I. These amounts were 20 mg of pure Compound I, 200 mg of the 10% mixtures, 400 mg of the 5% mixtures and 2.00 g of the 1% mixtures in 1 L of deionized water. A stirring rate of 200 rpm was used.
The concentration of Compound I in solution was monitored continuously as a function of time using a UV/Vis spectrometer probe which measured absorbance at 324 nm.

CCCNC(=O)C(C)(C)COc1cccc2c1C(N)=NS(=O)(=O)N2 [100% Compound I, 3-(4-amino-2,2-dioxide-1H-benzo[c][1,2,6]thiadiazin-5-yloxy)-2′,2′-dimethyl-N-propylpropanamide]
Concentration in solution (Compound I in solution at 0.083 min): −0.5 ppm
Concentration in solution (Compound I in solution at 2 min): 0.4 ppm
Concentration in solution (Compound I in solution at 5 min): 1.4 ppm
Concentration in solution (Compound I in solution at 10 min): 3.5 ppm
Concentration in solution (Compound I in solution at 25 min): 8.3 ppm
Concentration in solution (Compound I in solution at 50 min): 14.5 ppm
Concentration in solution (Compound I in solution at 100 min): 20.9 ppm
